In PMC8587515, “Cytotoxic and Anti-Inflammatory Activities of Dihydroisocoumarin and Xanthone Derivatives from Garcinia picrorhiza” (Molecules, 2021):

What was measured:
[1] = test system: NO production in LPS-IFN-γ-induced RAW 264.7 macrophages; test: NO production inhibition assay (Griess), RAW 264.7; format: cell-based, mouse; conditions: for IC50: Mus musculus, RAW264.7, LPS-IFN-γ-induced, 16 h, mean ± SEM (n = 6), read-out: IC50, iNOS (inhibition of NO production), RAW 264.7; for suppression of NO production, RAW 264.7: final concentration of 50 µM, preliminary screen
Protocol: (§1) Compounds 1–8 were screened for their inhibitory effects on nitric oxide production in LPS-IFN-γ activated RAW 264.7 macrophages and BV-2 microglial cells at a final concentration of 50 µM. […] A deprenylated furanoxanthone structure with ortho hydroxy group in ring B as in 7 might be important to enhance the inhibitory effect when compared to 6 and 8.
(§2) The iNOS inhibitory activity of the isolated compounds and respective cytotoxicity was determined using a previously described protocol. Briefly, BV-2 mouse microglial (25,000 cells/well) and RAW 264.7 mouse macrophage (100,000 cells/well) cell lines were seeded into 96-well plates in high glucose Dulbecco’s Modified Eagle’s Medium (DMEM, Gibco) containing 4 mM L-glutamine, 10% FBS, 2% HEPES, 1% penicillin/streptomycin, and 0.5% amphotericin B. After incubation for 24 h at 37 °C in a 5% CO2 humidified atmosphere, the cells were stimulated with 0.05% LPS (Sigma) and 0.025% interferon-γ (Roche Diagnostics, Mannheim, Germany) and treated with different concentrations (5–100 μM) of the tested compounds. The level of NO production in cell culture supernatants was determined using Griess reagent (Sigma) by photocolorimetric analysis after 16 h of incubation, using a Hidex Sense Microplate Reader (Hidex, Turku, Finland). Fifty microliters of XTT reagent (Sigma, Kit II) was then added into the same plates for cell viability measurement after 60 min incubation. L-NMMA (Alexis, Grünberg, Germany) 100 µM was used as the positive control, while 1% DMSO and digitonin (Roth, Karlsruhe, Germany) 400 µM were used as the vehicle and negative control, respectively. The assays were conducted in triplicates and repeated in two independent experiments. IC50 values were determined by graphical analysis using GraphPad Prism 7 (GraphPad Software, La Jolla, CA, USA).

[2] = Cytotoxicity (XTT cell viability), RAW 264.7; format: cell-based; conditions: mouse, RAW 264.7 macrophage cells, LPS/IFN-γ-stimulated, LPS-IFN-γ-induced cells, mean ± SEM (n = 6)
Protocol: as §1, §2

[3] = test system: NO production in LPS-IFN-γ-induced BV-2 microglial cells; test: NO production inhibition assay (Griess), BV-2; format: cell-based, mouse; conditions: for IC50: Mus musculus, BV-2, LPS-IFN-γ-induced, 16 h, mean ± SEM (n = 6), read-out: IC50, iNOS (inhibition of NO production), BV-2; for suppression of NO production, BV-2: final concentration of 50 µM, preliminary screen; for IC50 of NO inhibition lower than the cytotoxic activity, BV-2: ratio cytotoxicity IC50 / NO inhibition IC50 in BV-2 cells
Protocol: as §1, §2

[4] = Cytotoxicity (XTT cell viability), BV-2; format: cell-based; conditions: mouse, BV-2 microglial cells, LPS/IFN-γ-stimulated, LPS-IFN-γ-induced cells, mean ± SEM (n = 6)
Protocol: as §1, §2

[5] = target: T1, COX-1 (purified PGHS-1 from ram seminal vesicles) (Ovis aries, UniProt P05979); test: COX-1 enzyme inhibition assay (PGE2 ELISA); format: biochemical; conditions: mean ± SD (n = 4)
T1 construct: Purified PGHS-1 from ram seminal vesicles for COX-1; purchased Cayman Chemical Co., Ann Arbor, MI, USA; host or cells: ram seminal vesicles (tissue-purified)
T1 sequence (P05979 25-600): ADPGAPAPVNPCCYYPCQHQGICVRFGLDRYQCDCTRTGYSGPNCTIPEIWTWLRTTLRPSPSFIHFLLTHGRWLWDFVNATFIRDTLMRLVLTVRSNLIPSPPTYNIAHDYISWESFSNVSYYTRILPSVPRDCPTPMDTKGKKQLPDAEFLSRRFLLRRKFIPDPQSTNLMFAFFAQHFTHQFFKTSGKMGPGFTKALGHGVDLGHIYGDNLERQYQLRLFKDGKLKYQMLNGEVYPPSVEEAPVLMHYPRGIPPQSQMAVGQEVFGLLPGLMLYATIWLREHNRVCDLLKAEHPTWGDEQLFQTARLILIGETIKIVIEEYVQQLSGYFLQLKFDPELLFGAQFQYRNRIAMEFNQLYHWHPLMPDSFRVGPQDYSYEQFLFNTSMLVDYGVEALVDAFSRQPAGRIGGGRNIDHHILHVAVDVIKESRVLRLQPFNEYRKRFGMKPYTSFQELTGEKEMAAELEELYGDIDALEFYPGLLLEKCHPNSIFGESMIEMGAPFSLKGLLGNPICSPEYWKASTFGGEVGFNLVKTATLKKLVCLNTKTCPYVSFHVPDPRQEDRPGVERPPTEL
Protocol: The anti-inflammatory effects of the isolated compounds were also screened on COX-1 and COX-2 enzymes inhibition at a final concentration of 20 µM.
Purified PGHS-1 from ram seminal vesicles for COX-1 and human recombinant PGHS-2 for COX-2 (Cayman Chemical Co., Ann Arbor, MI, USA) were used for the COX inhibition assays. Experiments were performed in a 96-well plate format, as previously described. Briefly, the incubation mixture contained 180 µL of 0.1 M TRIS/HCl-buffer pH 8.0 (Roth, Karlsruhe, Germany), 50 µM Na2EDTA (only for COX-2, Titriplex III, Merck, Darmstadt, Germany), 18 mM L-epinepherine bitartrate (Fluka, Buchs, Switzerland), 5 µM porcine hematin (MP Biomedicals LLC, Solon, OH, USA), and COX-1 or COX-2 enzymes (0.2 U/well). Ten microliters of tested compounds (dissolved in DMSO with a final concentration of 20 µM) was added and the mixture was pre-incubated for 5 min at room temperature. Thereafter, 10 µL of 5 µM arachidonic acid (Ann Arbor, Michigan USA) was added to the mixture and incubated for 20 min at 37 °C. The reaction was subsequently stopped by adding 10 µL of 10% (v/v) formic acid. The concentration of PGE2 generated in the reaction was quantitatively measured by a competitive PGE2 ELISA kit (Enzo Life Sciences Inc., Farmingdale, NY, USA) according to the manufacturer’s protocol and previous procedure. The absorbance at 405 nm was measured using a Hidex Sense Microplate Reader (Hidex, Turku, Finland). […] The assays were performed in duplicates and repeated in two independent experiments.

Compound | IC50 [1] [µM] | suppression of NO production, RAW 264.7 [1] | IC50 at 16 h [2] [µM] | IC50 [3] [µM] | suppression of NO production, BV-2 [3] | IC50 of NO inhibition lower than the cytotoxic activity, BV-2 [3] [fold] | IC50 at 16 h [4] [µM] | inhibition at 20 µM [5] [%]
C[C@@H]1Oc2cc(O)c3c(=O)c4ccc(O)c(O)c4oc3c2C1(C)C [Compound 7, 2-deprenylrheediaxanthone B] | 45.6 ± 6.5 | over 70% | 85.6 ± 6.9 | 28.7 ± 2.3 | over 70% | 1.1 | 31.7 ± 4.7 | 15.4 ± 7.5
C[C@H]1Oc2c(c(O)c3c(=O)c4ccc(O)c(O)c4oc3c2CCC(C)(C)O)C1(C)C [Compound 4, gerontoxanthone C hydrate] | 84.3 ± 3.5 | over 70% | > 200 | 20 ± 4 | over 70% | 1.4 | 27.7 ± 6.4 | 32.4 ± 7.9
